Test results as given in PubChem BioAssay AID330 (DTP/NCI, 2004).
“And” between values parts separate entries of the source, which are not always exact repeats. Equal values may be shown once. Toxic doses and inconclusive results are not listed. Rule for the calls: active = survival T/C of 150% or more; inactive = T/C below 125% in these data.

System: P388 leukemia ip, CD2F1 mice, survival T/C
Assay: NCI In Vivo Anticancer Drug Screen. Data for tumor model P388 Leukemia (intraperitoneal) in CD2F1 (CDF1) mice
Details: endpoint: median survival time, higher = longer survival
Procedure, shortened: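 Mice carrying the transplanted tumor received test compound or vehicle. Survival was recorded in each group, and the value is the treated-group measurement divided by that of the vehicle-treated control group.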

[1] = dose: 12.5 mg/kg/injection, schedule: Q01DX009 (ip), vehicle: saline with Tween-80
[2] = dose: 12.5 mg/kg/injection, schedule: Q01DX009 (ip), vehicle: saline
[3] = dose: 25.0 mg/kg/injection, schedule: Q01DX009 (ip), vehicle: saline
[4] = dose: 50.0 mg/kg/injection, schedule: Q01DX009 (ip), vehicle: saline
[5] = dose: 50.0 mg/kg/injection, schedule: Q01DX009 (ip), vehicle: saline with Tween-80
[6] = dose: 60.0 mg/kg/injection, schedule: Q01DX005 (ip), vehicle: saline
[7] = dose: 60.0 mg/kg/injection, schedule: Q01DX005 (ip), vehicle: Klucel (hydroxypropylcellulose) (HPC)
[8] = dose: 120.0 mg/kg/injection, schedule: Q01DX005 (ip), vehicle: Klucel (hydroxypropylcellulose) (HPC)
[9] = dose: 240.0 mg/kg/injection, schedule: Q01DX005 (ip), vehicle: Klucel (hydroxypropylcellulose) (HPC)

Measured: T/C

NC(=O)N/N=C/c1cccs1
inactive: dose: 3.12 mg/kg/injection, schedule: Q01DX009 (ip), vehicle: saline with Tween-80 97 % of control | dose: 6.25 mg/kg/injection, schedule: Q01DX009 (ip), vehicle: saline with Tween-80 97 % of control | [1] 93 % of control

O=C(O)C1Cc2c([nH]c3ccccc23)C(CCCCO)N1 (stereo not given)
inactive: dose: 6.25 mg/kg/injection, schedule: Q01DX009 (ip), vehicle: Klucel (hydroxypropylcellulose) (HPC) 101 % of control | dose: 12.5 mg/kg/injection, schedule: Q01DX009 (ip), vehicle: Klucel (hydroxypropylcellulose) (HPC) 99 % of control

COc1cc(OC)c(N=Cc2ccc(C=Nc3cc(Cl)c(OC)cc3OC)cc2)cc1Cl
inactive: dose: 50.0 mg/kg/injection, schedule: Q01DX009 (ip), vehicle: Klucel (hydroxypropylcellulose) (HPC) 100 % of control | dose: 100.0 mg/kg/injection, schedule: Q01DX009 (ip), vehicle: Klucel (hydroxypropylcellulose) (HPC) 89 % of control | dose: 200.0 mg/kg/injection, schedule: Q01DX009 (ip), vehicle: Klucel (hydroxypropylcellulose) (HPC) 86 % of control

CCOC(=O)c1ccccn1
inactive: [2] 95 % of control | [3] 98 % of control | [4] 101 % of control | dose: 100.0 mg/kg/injection, schedule: Q01DX009 (ip), vehicle: saline 100 % of control

CCCCCC(CN(C)C)C(O)/C=C/c1ccc(Cl)cc1Cl (stereo not given)
inactive: [2] 108 % of control | [3] 100 % of control | [4] 99 % of control

COc1cc([N+](=O)[O-])ccc1NC(=O)C(F)(F)F
inactive: dose: 60.0 mg/kg/injection, schedule: Q01DX005 (ip), vehicle: saline with Tween-80 100 % of control | dose: 120.0 mg/kg/injection, schedule: Q01DX005 (ip), vehicle: saline with Tween-80 104 % of control | dose: 240.0 mg/kg/injection, schedule: Q01DX005 (ip), vehicle: saline with Tween-80 101 % of control

Nc1nc2cc([N+](=O)[O-])cnc2s1
inactive: dose: 100.0 mg/kg/injection, schedule: Q04DX003 (ip), vehicle: Klucel (hydroxypropylcellulose) (HPC) 103 % of control | dose: 200.0 mg/kg/injection, schedule: Q04DX003 (ip), vehicle: Klucel (hydroxypropylcellulose) (HPC) 101 % of control | dose: 400.0 mg/kg/injection, schedule: Q04DX003 (ip), vehicle: Klucel (hydroxypropylcellulose) (HPC) 100 % of control

CC(C)(C)N=C(CCN1CCCCC1)Nc1ccc(Cl)cc1
inactive: [5] 113 % of control | dose: 100.0 mg/kg/injection, schedule: Q01DX009 (ip), vehicle: saline with Tween-80 112 % of control | dose: 200.0 mg/kg/injection, schedule: Q01DX009 (ip), vehicle: saline with Tween-80 111 % of control

S=C(N/N=C1\CSCc2ccccc21)Nc1cc(Cl)ccc1Cl
inactive: [1] 87 % of control | dose: 25.0 mg/kg/injection, schedule: Q01DX009 (ip), vehicle: saline with Tween-80 90 % of control | [5] 100 % of control

CC1(C)CN2CCO[Si](CC[Si](C)(C)C)(OCC2)O1
inactive: dose: 50.0 mg/kg/injection, schedule: Q01DX005 (ip), vehicle: Klucel (hydroxypropylcellulose) (HPC) 105 % of control | dose: 100.0 mg/kg/injection, schedule: Q01DX005 (ip), vehicle: Klucel (hydroxypropylcellulose) (HPC) 105 % of control | dose: 200.0 mg/kg/injection, schedule: Q01DX005 (ip), vehicle: Klucel (hydroxypropylcellulose) (HPC) 102 % of control

CCc1nc(N)nc(-c2nc(N)nc(CC)c2C)c1C
inactive: [6] 106 % of control | dose: 120.0 mg/kg/injection, schedule: Q01DX005 (ip), vehicle: saline 104 % of control | dose: 240.0 mg/kg/injection, schedule: Q01DX005 (ip), vehicle: saline 108 % of control

COc1ccc2cc3[n+](c(CC(=O)O)c2c1OC)CCc1cc2c(cc1-3)OCO2
inactive: dose: 0.63 mg/kg/injection, schedule: Q01DX009 (ip), vehicle: water 101 % of control | dose: 1.25 mg/kg/injection, schedule: Q01DX009 (ip), vehicle: water 88 % of control | dose: 2.5 mg/kg/injection, schedule: Q01DX009 (ip), vehicle: water 105 % of control | dose: 5.0 mg/kg/injection, schedule: Q01DX009 (ip), vehicle: water 117 % of control | dose: 10.0 mg/kg/injection, schedule: Q01DX009 (ip), vehicle: water 118 % of control

COc1ccc(C[n+]2ccc3ccccc3c2)cc1
inactive: dose: 15.0 mg/kg/injection, schedule: Q01DX005 (ip), vehicle: saline 95 % of control | dose: 30.0 mg/kg/injection, schedule: Q01DX005 (ip), vehicle: saline 95 % of control | [6] 106 % of control and 111 % of control

O=C1OC2(O)c3ccccc3C(=O)N2N2CCCC12 (stereo not given)
inactive: [7] 109 % of control | [8] 98 % of control | [9] 98 % of control

C=CCNC1=C2C[C@@H](C)C[C@H](OC)[C@H](O)[C@@H](C)/C=C(\C)[C@H](OC(N)=O)[C@@H](OC)/C=C\C=C(/C)C(=O)NC(=CC1=O)C2=O
inactive: dose: 6.25 mg/kg/injection, schedule: Q01DX009 (ip), vehicle: DMSO 108 % of control | dose: 6.25 mg/kg/injection, schedule: Q01DX009 (ip), vehicle: distilled water + Tween-80 112 % of control | dose: 12.5 mg/kg/injection, schedule: Q01DX009 (ip), vehicle: DMSO 100 % of control | dose: 12.5 mg/kg/injection, schedule: Q01DX009 (ip), vehicle: distilled water + Tween-80 112 % of control | dose: 25.0 mg/kg/injection, schedule: Q01DX009 (ip), vehicle: DMSO 107 % of control

COC(=O)CC1(C(=O)OC)C(Sc2ccccc2)=C(c2ccccc2)N2CCCC21 (stereo not given)
inactive: dose: 21.88 mg/kg/injection, schedule: Q01DX009 (ip), vehicle: Klucel (hydroxypropylcellulose) (HPC) 101 % of control | dose: 43.75 mg/kg/injection, schedule: Q01DX009 (ip), vehicle: Klucel (hydroxypropylcellulose) (HPC) 96 % of control | dose: 87.5 mg/kg/injection, schedule: Q01DX009 (ip), vehicle: Klucel (hydroxypropylcellulose) (HPC) 96 % of control | dose: 175.0 mg/kg/injection, schedule: Q01DX009 (ip), vehicle: Klucel (hydroxypropylcellulose) (HPC) 92 % of control

CSC(C(O)C(O)C(O)C(O)CO)n1cnc2c(=S)nc[nH]c21 (stereo not given)
inactive: dose: 50.0 mg/kg/injection, schedule: Q01DX005 (ip), vehicle: saline with Tween-80 99 % of control | dose: 100.0 mg/kg/injection, schedule: Q01DX005 (ip), vehicle: saline with Tween-80 96 % of control | dose: 200.0 mg/kg/injection, schedule: Q01DX005 (ip), vehicle: saline with Tween-80 99 % of control

CCCCCCCN(CCCCCCC)CC(O)c1c(OC)c2cc(Cl)ccc2c2ccc(Cl)cc12 (stereo not given)
inactive: dose: 10.0 mg/kg/injection, schedule: Q01DX009 (ip), vehicle: saline with Tween-80 94 % of control | dose: 20.0 mg/kg/injection, schedule: Q01DX009 (ip), vehicle: saline with Tween-80 90 % of control | dose: 40.0 mg/kg/injection, schedule: Q01DX009 (ip), vehicle: saline with Tween-80 92 % of control

C=C1CC[C@H]2C(C)=CC[C@@H]3[C@H](OC(=O)[C@H]3COC)[C@@H]12
inactive: dose: 100.0 mg/kg/injection, schedule: Q01DX001 (ip), vehicle: saline 107 % of control | dose: 200.0 mg/kg/injection, schedule: Q01DX001 (ip), vehicle: saline 97 % of control | dose: 400.0 mg/kg/injection, schedule: Q01DX001 (ip), vehicle: saline 103 % of control

CC12CCC(C/C1=N\[N+](=O)[O-])C2(C)C (stereo not given)
inactive: dose: 12.5 mg/kg/injection, schedule: Q01DX009 (ip), vehicle: suspension in saline 96 % of control | dose: 25.0 mg/kg/injection, schedule: Q01DX009 (ip), vehicle: suspension in saline 97 % of control | [4] 100 % of control | dose: 50.0 mg/kg/injection, schedule: Q01DX009 (ip), vehicle: suspension in saline 97 % of control | dose: 200.0 mg/kg/injection, schedule: Q01DX009 (ip), vehicle: saline 90 % of control

CC1=CC(O)(c2ccccn2)P(=O)(c2ccccc2)C=C1C (stereo not given)
inactive: [7] 115 % of control | [8] 111 % of control | [9] 99 % of control
